Experimental data reported in PubChem BioAssay (NCI).
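Dose response: 5 concentrations. Exposure: 48 h. Format: 96-well plates. Endpoint: linear interpolation; highest concentration if not reached. GI50: concentration for 50% inhibition of growth. TGI is the concentration that stops growth completely.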

Columns and labels:
Experiment in all cases: NCI anticancer screen, dose series, 48 h
786-0 renal = system: 786-0 renal
A498 renal = system: A498 renal
A549 NSCLC = system: A549 NSCLC
ACHN renal = system: ACHN renal
BT-549 breast = system: BT-549 breast
CCRF-CEM leukemia = system: CCRF-CEM leukemia
DU-145 prostate = system: DU-145 prostate
HCT-116 colon = system: HCT-116 colon
HCT-15 colon = system: HCT-15 colon
HL-60(TB) leukemia = system: HL-60(TB) leukemia
HOP-62 NSCLC = system: HOP-62 NSCLC
HOP-92 NSCLC = system: HOP-92 NSCLC
HS 578T breast = system: HS 578T breast
HT29 colon = system: HT29 colon
K-562 leukemia = system: K-562 leukemia
KM12 colon = system: KM12 colon
LOX IMVI melanoma = system: LOX IMVI melanoma
M14 melanoma = system: M14 melanoma
MCF7 breast = system: MCF7 breast
MDA-MB-231 breast = system: MDA-MB-231 breast
MOLT-4 leukemia = system: MOLT-4 leukemia
NCI-H226 lung = system: NCI-H226 lung
NCI-H23 lung = system: NCI-H23 lung
NCI/ADR-RES ovarian = system: NCI/ADR-RES ovarian
OVCAR-5 ovarian = system: OVCAR-5 ovarian
OVCAR-8 ovarian = system: OVCAR-8 ovarian
PC-3 prostate = system: PC-3 prostate
RPMI-8226 leukemia = system: RPMI-8226 leukemia
RXF 393 renal = system: RXF 393 renal
SF-268 CNS = system: SF-268 CNS
SF-539 CNS = system: SF-539 CNS
SK-MEL-2 melanoma = system: SK-MEL-2 melanoma
SK-MEL-28 melanoma = system: SK-MEL-28 melanoma
SN12C renal = system: SN12C renal
SNB-19 CNS = system: SNB-19 CNS
SNB-75 CNS = system: SNB-75 CNS
SR leukemia = system: SR leukemia
SW-620 colon = system: SW-620 colon
TK-10 renal = system: TK-10 renal
U251 CNS = system: U251 CNS
UACC-257 melanoma = system: UACC-257 melanoma
UACC-62 melanoma = system: UACC-62 melanoma
UO-31 renal = system: UO-31 renal
CAKI-1 renal = system: CAKI-1 renal
EKVX NSCLC = system: EKVX NSCLC
HCC-2998 colon = system: HCC-2998 colon
IGROV1 ovarian = system: IGROV1 ovarian
MALME-3M melanoma = system: MALME-3M melanoma
MDA-MB-435 = system: MDA-MB-435
NCI-H460 lung = system: NCI-H460 lung
NCI-H522 lung = system: NCI-H522 lung
OVCAR-4 ovarian = system: OVCAR-4 ovarian
SF-295 CNS = system: SF-295 CNS
SK-MEL-5 melanoma = system: SK-MEL-5 melanoma
SK-OV-3 ovarian = system: SK-OV-3 ovarian

Question: Which results are given for Cn1cc(-c2ccc(-c3cn(C)c4ccc(Cl)cc34)[nH]2)c2cc(Cl)ccc21?
Answer: GI50 (786-0 renal): 5.31 µM; TGI (786-0 renal): 29.5 µM; GI50 (A498 renal): 4.17 µM; TGI (A498 renal): 19 µM; GI50 (A549 NSCLC): 1.79 µM; TGI (A549 NSCLC): 4.19 µM; GI50 (ACHN renal): 1.08 µM; TGI (ACHN renal): 2.28 µM; GI50 (BT-549 breast): 0.419 µM; TGI (BT-549 breast): 1.71 µM; GI50 (CCRF-CEM leukemia): 0.373 µM; TGI (CCRF-CEM leukemia): 1.7 µM; GI50 (DU-145 prostate): 3.57 µM; TGI (DU-145 prostate): 15.3 µM; GI50 (HCT-116 colon): 1.99 µM; TGI (HCT-116 colon): 5.62 µM; GI50 (HCT-15 colon): 1.1 µM; TGI (HCT-15 colon): 2.5 µM; GI50 (HL-60(TB) leukemia): 0.438 µM; TGI (HL-60(TB) leukemia): 2.62 µM; GI50 (HOP-62 NSCLC): 2.25 µM; TGI (HOP-62 NSCLC): 7.76 µM; GI50 (HOP-92 NSCLC): 1.15 µM; TGI (HOP-92 NSCLC): 3.28 µM; GI50 (HS 578T breast): 1.14 µM; TGI (HS 578T breast): 5.37 µM; GI50 (HT29 colon): 3.92 µM; TGI (HT29 colon): 16 µM; GI50 (K-562 leukemia): 0.377 µM; TGI (K-562 leukemia): 2.03 µM; GI50 (KM12 colon): 1.2 µM; TGI (KM12 colon): 3.77 µM; GI50 (LOX IMVI melanoma): 1.22 µM; TGI (LOX IMVI melanoma): 2.67 µM; GI50 (M14 melanoma): 1.62 µM; TGI (M14 melanoma): 4.19 µM; GI50 (MCF7 breast): 2.85 µM; TGI (MCF7 breast): 15.4 µM; GI50 (MDA-MB-231 breast): 0.442 µM; TGI (MDA-MB-231 breast): 1.98 µM; GI50 (MOLT-4 leukemia): 2.85 µM; TGI (MOLT-4 leukemia): 11 µM; GI50 (NCI-H226 lung): 1.93 µM; TGI (NCI-H226 lung): 4.25 µM; GI50 (NCI-H23 lung): 3.23 µM; TGI (NCI-H23 lung): 24.7 µM; GI50 (NCI/ADR-RES ovarian): 1.84 µM; TGI (NCI/ADR-RES ovarian): > 100 µM; GI50 (OVCAR-5 ovarian): 0.663 µM; TGI (OVCAR-5 ovarian): 2.82 µM; GI50 (OVCAR-8 ovarian): 1.44 µM; TGI (OVCAR-8 ovarian): 5.58 µM; GI50 (PC-3 prostate): 0.434 µM; TGI (PC-3 prostate): 1.72 µM; GI50 (RPMI-8226 leukemia): 0.356 µM; TGI (RPMI-8226 leukemia): 1.31 µM; GI50 (RXF 393 renal): 0.882 µM; TGI (RXF 393 renal): 2.31 µM; GI50 (SF-268 CNS): 1.38 µM; TGI (SF-268 CNS): 4.09 µM; GI50 (SF-539 CNS): 1.14 µM; TGI (SF-539 CNS): 3.45 µM; GI50 (SK-MEL-2 melanoma): 1.99 µM; TGI (SK-MEL-2 melanoma): 4.91 µM; GI50 (SK-MEL-28 melanoma): 1.82 µM; TGI (SK-MEL-28 melanoma): 3.95 µM; GI50 (SN12C renal): 2.39 µM; TGI (SN12C renal): 5.72 µM; GI50 (SNB-19 CNS): 1.39 µM; TGI (SNB-19 CNS): 4.06 µM; GI50 (SNB-75 CNS): 1.75 µM; TGI (SNB-75 CNS): 4.38 µM; GI50 (SR leukemia): 0.617 µM; TGI (SR leukemia): 3.19 µM; GI50 (SW-620 colon): 0.647 µM; TGI (SW-620 colon): 3.14 µM; GI50 (TK-10 renal): 3.14 µM; TGI (TK-10 renal): 9.8 µM; GI50 (U251 CNS): 0.398 µM; TGI (U251 CNS): 1.29 µM; GI50 (UACC-257 melanoma): 2.25 µM; TGI (UACC-257 melanoma): 4.49 µM; GI50 (UACC-62 melanoma): 0.946 µM; TGI (UACC-62 melanoma): 2.39 µM; GI50 (UO-31 renal): 0.208 µM; TGI (UO-31 renal): 0.503 µM

Question: Which results are given for COc1ccc2nc3ccccc3c(NCc3ccc(Cl)cc3)c2c1?
Answer: GI50 (786-0 renal): 1.73 µM; TGI (786-0 renal): 3.2 µM; GI50 (A498 renal): 1.44 µM; TGI (A498 renal): 2.77 µM; GI50 (A549 NSCLC): 2.06 µM; TGI (A549 NSCLC): 4.89 µM; GI50 (ACHN renal): 1.55 µM; TGI (ACHN renal): 2.89 µM; GI50 (BT-549 breast): 5.64 µM; TGI (BT-549 breast): 20.8 µM; GI50 (CAKI-1 renal): 1.69 µM; TGI (CAKI-1 renal): 3.23 µM; GI50 (CCRF-CEM leukemia): 2.66 µM; TGI (CCRF-CEM leukemia): 9.48 µM; GI50 (DU-145 prostate): 2.65 µM; TGI (DU-145 prostate): 7.33 µM; GI50 (EKVX NSCLC): 2.3 µM; TGI (EKVX NSCLC): 5.92 µM; GI50 (HCC-2998 colon): 1.76 µM; TGI (HCC-2998 colon): 3.24 µM; GI50 (HCT-116 colon): 1.79 µM; TGI (HCT-116 colon): 4.14 µM; GI50 (HCT-15 colon): 1.73 µM; TGI (HCT-15 colon): 3.88 µM; GI50 (HL-60(TB) leukemia): 2.29 µM; TGI (HL-60(TB) leukemia): 5.24 µM; GI50 (HOP-62 NSCLC): 1.72 µM; TGI (HOP-62 NSCLC): 3.44 µM; GI50 (HOP-92 NSCLC): 1.48 µM; TGI (HOP-92 NSCLC): 3.35 µM; GI50 (HT29 colon): 2.02 µM; TGI (HT29 colon): 7.08 µM; GI50 (IGROV1 ovarian): 2.4 µM; TGI (IGROV1 ovarian): 6.65 µM; GI50 (KM12 colon): 3.08 µM; TGI (KM12 colon): 11.3 µM; GI50 (M14 melanoma): 1.81 µM; TGI (M14 melanoma): 3.47 µM; GI50 (MALME-3M melanoma): 1.81 µM; TGI (MALME-3M melanoma): 3.39 µM; GI50 (MDA-MB-435): 1.5 µM; TGI (MDA-MB-435): 3.06 µM; GI50 (MOLT-4 leukemia): 3.19 µM; TGI (MOLT-4 leukemia): 13.3 µM; GI50 (NCI-H226 lung): 2.14 µM; TGI (NCI-H226 lung): 5.74 µM; GI50 (NCI-H23 lung): 1.86 µM; TGI (NCI-H23 lung): 4.52 µM; GI50 (NCI-H460 lung): 1.88 µM; TGI (NCI-H460 lung): 3.69 µM; GI50 (NCI-H522 lung): 2.02 µM; TGI (NCI-H522 lung): 5.08 µM; GI50 (NCI/ADR-RES ovarian): 1.8 µM; TGI (NCI/ADR-RES ovarian): 3.97 µM; GI50 (OVCAR-4 ovarian): 2.13 µM; TGI (OVCAR-4 ovarian): 6.35 µM; GI50 (OVCAR-5 ovarian): 1.91 µM; TGI (OVCAR-5 ovarian): 4.9 µM; GI50 (OVCAR-8 ovarian): 2.25 µM; TGI (OVCAR-8 ovarian): 5.91 µM; GI50 (PC-3 prostate): 1.79 µM; TGI (PC-3 prostate): 4.24 µM; GI50 (RXF 393 renal): 1.45 µM; TGI (RXF 393 renal): 3 µM; GI50 (SF-268 CNS): 1.98 µM; TGI (SF-268 CNS): 4.61 µM; GI50 (SF-295 CNS): 1.5 µM; TGI (SF-295 CNS): 2.93 µM; GI50 (SF-539 CNS): 1.71 µM; TGI (SF-539 CNS): 3.24 µM; GI50 (SK-MEL-2 melanoma): 1.93 µM; TGI (SK-MEL-2 melanoma): 3.7 µM; GI50 (SK-MEL-28 melanoma): 1.78 µM; TGI (SK-MEL-28 melanoma): 3.36 µM; GI50 (SK-MEL-5 melanoma): 1.76 µM; TGI (SK-MEL-5 melanoma): 3.19 µM; GI50 (SK-OV-3 ovarian): 3.19 µM; TGI (SK-OV-3 ovarian): 9.8 µM; GI50 (SN12C renal): 1.73 µM; TGI (SN12C renal): 3.86 µM; GI50 (SNB-19 CNS): 2.26 µM; TGI (SNB-19 CNS): 6.35 µM; GI50 (SNB-75 CNS): 1.27 µM; TGI (SNB-75 CNS): 2.62 µM; GI50 (SW-620 colon): 1.65 µM; TGI (SW-620 colon): 3.47 µM; GI50 (TK-10 renal): 1.96 µM; TGI (TK-10 renal): 3.84 µM; GI50 (UACC-257 melanoma): 2.03 µM; TGI (UACC-257 melanoma): 4.57 µM; GI50 (UACC-62 melanoma): 1.66 µM; TGI (UACC-62 melanoma): 3.21 µM; GI50 (UO-31 renal): 1.34 µM; TGI (UO-31 renal): 2.75 µM
